# According to patent US20200254065A1, “LONG-ACTING GLP-2 ANALOGS” (OPKO Biologics Ltd., priority 2019, published 2020):
# Square brackets hold non-standard residues; d marks the D form. Ends that are not written are not given here. Peptide text beside a SMILES is read from it. Nle = CCCC[C@H](N)C(=O)O
# Columns and labels:
# [1] = biological target: T1, GLP-2 receptor (Homo sapiens, UniProt O95838); assay: GLP-2 receptor Cell Based Assay (CBA)
# T1 sequence (O95838 1-553): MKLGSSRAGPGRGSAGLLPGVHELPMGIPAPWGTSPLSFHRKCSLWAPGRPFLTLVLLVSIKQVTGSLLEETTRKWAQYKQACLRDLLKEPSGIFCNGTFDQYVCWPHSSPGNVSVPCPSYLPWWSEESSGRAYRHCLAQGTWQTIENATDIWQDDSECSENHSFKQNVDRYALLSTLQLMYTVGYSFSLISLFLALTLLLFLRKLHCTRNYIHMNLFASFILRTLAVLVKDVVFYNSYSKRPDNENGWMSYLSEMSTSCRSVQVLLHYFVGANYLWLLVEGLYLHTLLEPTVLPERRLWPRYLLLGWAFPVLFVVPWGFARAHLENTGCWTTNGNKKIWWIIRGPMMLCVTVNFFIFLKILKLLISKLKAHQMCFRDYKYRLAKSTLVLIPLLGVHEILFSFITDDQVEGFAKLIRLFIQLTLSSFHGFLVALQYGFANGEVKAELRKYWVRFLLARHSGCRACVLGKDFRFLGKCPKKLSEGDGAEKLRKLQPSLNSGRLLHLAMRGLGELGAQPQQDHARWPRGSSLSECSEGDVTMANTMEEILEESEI
# Procedure: Evaluation of in vitro binding affinity of the different peptides was assessed by using Cell Based Assay (CBA) in the presence of escalating doses of the different peptides.
# [2] = tested on: intestine epithelium (crypts plus villi); assay: Crypts plus villi length, histopathology of small intestine; format: in vivo, SD rats
# Procedure: In addition to PEG30-FMS-V4 and PEG30-Fmoc-V4 that have been pharmacology evaluated by small intestinal weight evaluation (As shown in Example 5), four other reversible PEGylated variant 4 (“V4”) conjugates and two reversible linker-V4 conjugates were synthesized. All the above were injected to 6 normal SD rats/group once at 2 mg/kg (peptide dose), while on the 6th day, animals were scarified, and the small intestine was weighted followed by histopathology evaluation. […] Therefore, slices from three areas of the intestine (duodenum, jejunum and ilium) were stained with hematoxylin and eosin and at least 7 Crypts+Villi length/slice were measured. The averaged Villi+Crypt length of each treatment group (n=6) was compared to the vehicle group (negative control) and calculated as percentage increase over vehicle. […]
# An additional study to evaluate the efficacy and the longevity of V4 and Cys-FMS-V4 was conducted (Study reference 15204) in which the animals were sacrificed on Days 6 (N=6), 10 (N=4) and 14 (N=4). This experiment measured the pharmacological response compared to the commercially approved SBS treatment drug Gattex. In addition, two new conjugates were tested by conjugating V4 to reduced OSu-linker and Cys-FMS-V4 purified from resin. The animals were injected with a single SC injection at Day 1 with 2 mg/kg peptide content of V4, Cys-FMS-V4, FMS-OSu-V4, Apraglutide and Glepaglutide while Gattex was SC injected daily at 2.5 mg/kg peptide content. […]
# [3] = Stability of GLP-2 analogues on incubation at 37° C. (appearance, O.D. reading, RP-HPLC); format: physicochemical; conditions: following 48 h incubation at 37° C.
# Procedure: The GLP-2 analogues were tested for stability via appearance, O.D. reading (A.280, and A.325) and RP-HPLC (purity, and peak area) following t=0, 1 day, and 48 h incubation at 37° C.
# [4] = tested on: small intestine; assay: Intestine weight model in rats; format: in vivo, SD rats
# Procedure: In the pharmacology study, the conjugates were injected subcutaneously twice, on days 1 and 3 at 1 mg/kg (peptide dose) and intestine weight was performed on day 6. In addition to the PEGylated conjugates, GLP-2-Gly2 was injected at the same dose and regimen for comparison. The average of the intestine weight of each group was compared to that of the vehicle group.
# In a different study, several of the PEGylated teduglutide were injected as a single dose at 1 mg/kg and the intestine weight performed on day 6.
# Pharmacology and pharmacokinetic studies were performed with the most promising GLP-2 variants to evaluate their efficacy and longevity, respectively. The intestine weight model in rats was conducted to evaluate efficacy, by measuring percent increase of the intestine weight of treated animals over the vehicle group. In this study, the peptides were injected twice, on days 1 and 3 at 1 mg/kg and the intestine weight was conducted on day 6.
# PEG20-FMS-V6, PEG20-Fmoc-V6 and PEG40-FMS-V6 were injected once at 1 mg/kg dose on day 1, while group D was also injected twice on days 1 & 3 at 1 mg/kg. The intestine weight was performed on day 6.
# Three different reversible PEGylated GLP-2 variants using mutated peptide #4 were injected at 2 mg/kg (peptide dose), once every 6 days for 12 days. On the 12th day the intestine was weighted and compared to the control group. PEG30-FMS-V4 was injected at 0.5 mg/kg as well to evaluate the efficacy dose range.
# In addition to PEG30-FMS-V4 and PEG30-Fmoc-V4 that have been pharmacology evaluated by small intestinal weight evaluation (As shown in Example 5), four other reversible PEGylated variant 4 (“V4”) conjugates and two reversible linker-V4 conjugates were synthesized. All the above were injected to 6 normal SD rats/group once at 2 mg/kg (peptide dose), while on the 6th day, animals were scarified, and the small intestine was weighted followed by histopathology evaluation. […] Therefore, slices from three areas of the intestine (duodenum, jejunum and ilium) were stained with hematoxylin and eosin and at least 7 Crypts+Villi length/slice were measured. The averaged Villi+Crypt length of each treatment group (n=6) was compared to the vehicle group (negative control) and calculated as percentage increase over vehicle.
# Additional studies were conducted to evaluate the efficacy of the V4 peptide and the reversible MAL-FMS-V4. The long acting effect of V4 and the conjugates were evaluated at Day 6 and Day 10 following treatment (Study reference 15203). All test groups (n=9) were injected SC with 2 mg/kg peptide content at Day 1. At Days 6 and 10, animals were sacrificed and the small intestine underwent histopathology evaluation (6 animals for Day 6, 3 animals for Day 10). FIGS. 12 and 13 show the pharmacology effect of different V4 conjugates and Apraglutide and Glepaglutide as measured by the percent increase of small intestine weight and crypts plus villi length over vehicle, respectively.
# To further evaluate the pharmacology efficacy of V4 and Cys-FMS-V4, an experiment was performed to test their acute and prolonged effect on the small intestine (Study reference 15205). In addition, V4 and Cys-FMS-V4 were administrated as a single SC injection on Day 1 at 3 different doses (0.5, 2.0 or 8.0 mg/kg peptide content, 6 rats per group) to assess the dose dependence effect. The pharmacological effect on small intestine weight and villi plus crypts length was measured at Days 3, 7 and 14, and the results are presented in FIGS. 15 and 16. […] It should be noted that this acute response was higher for V4 compared to Cys-FMS-V4 at all 3 dose levels.
# [5] = Pharmacokinetics of modified GLP-2 variants in rats; format: in vivo; conditions: rat, serum, peptide dose 15 mg/kg
# [6] = biological target: T2, GLP-2 receptor (UniProt O95838 1-553, limits assumed); assay: cell-based or functional assay
# T2 sequence (looked up): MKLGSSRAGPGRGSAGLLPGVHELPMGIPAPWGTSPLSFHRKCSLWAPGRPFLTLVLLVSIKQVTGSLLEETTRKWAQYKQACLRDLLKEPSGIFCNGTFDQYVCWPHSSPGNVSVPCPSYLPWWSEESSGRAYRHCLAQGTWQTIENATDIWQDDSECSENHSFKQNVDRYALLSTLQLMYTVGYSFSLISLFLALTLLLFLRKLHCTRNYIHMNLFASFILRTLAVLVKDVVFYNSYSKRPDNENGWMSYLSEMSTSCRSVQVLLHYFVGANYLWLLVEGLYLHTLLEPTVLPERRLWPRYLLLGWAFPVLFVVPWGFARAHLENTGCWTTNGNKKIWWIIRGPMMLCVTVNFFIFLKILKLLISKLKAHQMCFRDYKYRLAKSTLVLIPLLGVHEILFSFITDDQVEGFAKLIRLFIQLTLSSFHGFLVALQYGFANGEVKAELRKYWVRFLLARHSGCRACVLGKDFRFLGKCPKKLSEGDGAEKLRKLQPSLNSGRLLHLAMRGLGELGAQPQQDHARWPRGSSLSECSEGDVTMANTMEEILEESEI
# [7] = Table 8, average of 3 independent CBA
compound,measurement,setting,value
"CCCC[C@H](NC(=O)[C@H](CCC(=O)O)NC(=O)[C@H](CC(=O)O)NC(=O)[C@H](CO)NC(=O)[C@H](Cc1ccccc1)NC(=O)[C@H](CO)NC(=O)CNC(=O)[C@H](CC(=O)O)NC(=O)CNC(=O)[C@@H](N)Cc1c[nH]cn1)C(=O)N[C@H](Cc1ccccc1)C(=O)N[C@H](C(=O)N[C@H](C(=O)N[C@@H](CC(C)C)C(=O)N[C@@H](CC(=O)O)C(=O)N[C@@H](CC(C)C)C(=O)N[C@@H](CC(C)C)C(=O)N[C@@H](C)C(=O)N[C@@H](C)C(=O)N[C@@H](CCCNC(=N)N)C(=O)N[C@@H](CC(=O)O)C(=O)N[C@@H](Cc1ccccc1)C(=O)N[C@H](C(=O)N[C@@H](CC(N)=O)C(=O)N[C@@H](Cc1c[nH]c2ccccc12)C(=O)N[C@@H](CC(C)C)C(=O)N[C@H](C(=O)N[C@@H](CCC(N)=O)C(=O)N[C@H](C(=O)N[C@@H](CCCCN)C(=O)N[C@H](C(=O)N[C@H](C(=O)N[C@@H](CC(=O)O)C(N)=O)[C@@H](C)O)[C@@H](C)CC)[C@@H](C)O)[C@@H](C)CC)[C@@H](C)CC)[C@@H](C)CC)[C@@H](C)O [Variant 1, reference compound] (H-HGDGSFSDE[Nle][dF]TILDLLAARDFINWLIQTKITD-NH2)",EC50 Ratio to Teduglutide,[1]; [7],2.9
same,EC50 Ratio to Variant 4,[1]; [7],1.6
same,Crypts plus villi length percent increase over vehicle (FIG. 13),"[2]; Study 15203, single SC 2 mg/kg on Day 1, Days 6 and 10",moderate effect that was higher than Glepaglutide and the PEG30-FMS-V4 conjugate
CCCC[C@H](NC(=O)[C@H](CCC(=O)O)NC(=O)[C@H](CC(=O)O)NC(=O)[C@H](CO)NC(=O)[C@H](Cc1ccccc1)NC(=O)[C@H](CO)NC(=O)CNC(=O)[C@H](CCC(=O)O)NC(=O)CNC(=O)[C@@H](N)Cc1c[nH]cn1)C(=O)N[C@H](Cc1c[nH]cn1)C(=O)N[C@H](C(=O)N[C@H](C(=O)N[C@@H](CC(C)C)C(=O)N[C@@H](CC(=O)O)C(=O)N[C@@H](CC(N)=O)C(=O)N[C@@H](CC(C)C)C(=O)N[C@@H](C)C(=O)N[C@@H](C)C(=O)N[C@@H](CCCNC(=N)N)C(=O)N[C@@H](CC(=O)O)C(=O)N[C@@H](Cc1ccccc1)C(=O)N[C@H](C(=O)N[C@@H](CC(N)=O)C(=O)N[C@@H](Cc1c[nH]c2ccccc12)C(=O)N[C@@H](CC(C)C)C(=O)N[C@H](C(=O)N[C@@H](CCC(N)=O)C(=O)N[C@H](C(=O)N[C@@H](CCCCN)C(=O)N[C@H](C(=O)N[C@H](C(=O)N[C@@H](CC(=O)O)C(N)=O)[C@@H](C)O)[C@@H](C)CC)[C@@H](C)O)[C@@H](C)CC)[C@@H](C)CC)[C@@H](C)CC)[C@@H](C)O [Variant 3] (H-HGEGSFSDE[Nle][dH]TILDNLAARDFINWLIQTKITD-NH2),EC50 Ratio to Teduglutide,[1]; Table 7,2.5
same,Solubility via appearance,[3],V3: clear
same,Stability via RP-HPLC main peak,[3]; change of main peak,V3: −4%
same,Increase of intestine weight over vehicle (%),"[4]; modified peptides, two injections on days 1 & 3 at 1 mg/kg, intestine weight on day 6",4%
same,half-life,[5],1.9 h
GLP2 DiscoverX Kit (peptide),"EC50 (nM) Average, GLP2-receptor CBA, 3 independent assays",[6],0.8 nM
same,"EC50 Ratio to Teduglutide, CBA",[6],1.8 fold
same,"EC50 Ratio to Teduglutide, GLP2-receptor CBA",[6],1.3 fold
same,"EC50 Ratio to Variant 4, GLP2-receptor CBA",[6],0.7 fold
same,"EC50 [nM], Cell Based Assay (CBA), cells overexpressing the GLP-2 receptor",[6],10.1 nM
"MAL-FMS-V4 (HGEGSFSDE[Nle]NTILDLLAARDFINWLIQTKITD-NH2; also: MAL-FMS conjugate, place not given here)",Avg. small intestine weight (gr),"[4]; normal SD rats, injected once at 2 mg/kg peptide dose, 6th day",7.0 gr
same,Percent increase of Crypts+Villi length over vehicle (FIG. 3),"[2]; Study 15201, 0.5 and 2 mg/kg peptide dose once, 6 days after injection",dose dependent pharmacology effect on the intestine epithelium
same,Percent increase of Crypts plus Villi length over vehicle (FIG. 1),"[2]; injected once at 2 mg/kg peptide dose, 6th day",showed the most pronounce effect on the intestine epithelium
